Assay results taken from patent US11993821B2, “Co-crystallized sweeteners” (FIRMENICH SA, priority 2012, dated 2024).

Experiment: Dissolution measurements (Distek 2100B USP 2 dissolution system, UV/Vis probe at 324 nm)
Format: physicochemical
Settings: 1 L deionized water, 200 rpm, amount for 20 ppm Compound I
Procedure: Dissolution Measurements: The performance of the sucrose/Compound I co-crystallized product was compared to that of the Compound I starting material and sucrose/Compound I powder mixtures under standard conditions using a Distek 2100B USP 2 dissolution system. Sufficient amounts of each sample were added in order to create 20 ppm solutions of Compound I. These amounts were 20 mg of pure Compound I, 200 mg of the 10% mixtures, 400 mg of the 5% mixtures and 2.00 g of the 1% mixtures in 1 L of deionized water. A stirring rate of 200 rpm was used.
The concentration of Compound I in solution was monitored continuously as a function of time using a UV/Vis spectrometer probe which measured absorbance at 324 nm.

Concentration in solution (Compound I in solution at 0.083 min): −0.5 ppm
Concentration in solution (Compound I in solution at 2 min): 0.4 ppm
Concentration in solution (Compound I in solution at 5 min): 1.4 ppm
Concentration in solution (Compound I in solution at 10 min): 3.5 ppm
Concentration in solution (Compound I in solution at 25 min): 8.3 ppm
Concentration in solution (Compound I in solution at 50 min): 14.5 ppm
Concentration in solution (Compound I in solution at 100 min): 20.9 ppm
SMILES: CCCNC(=O)C(C)(C)COc1cccc2c1C(N)=NS(=O)(=O)N2 [100% Compound I, 3-(4-amino-2,2-dioxide-1H-benzo[c][1,2,6]thiadiazin-5-yloxy)-2′,2′-dimethyl-N-propylpropanamide]
